≈ marks a conversion by molar mass, not a printed value.
Key:
[1] = Effect of pH value on the solubility of Compound 1 (solution appearance); type: physicochemical
Protocol: (§1) Experimental method: Referring to the process of preparation of solution in Preparation Example 1, the preparation was carried out in an amount of 10 vials, and the solutions with different pH values were prepared according to the following formulations (contents in each vial), and the properties of the prepared solutions were observed.
The thicker of the milky white, the worse of the solubility.

[2] = General statements on solubility and stability of Compound 1 versus pH; type: physicochemical
[3] = Effect of surfactant on solubility and clarity of Compound 1 (appearance observation); type: physicochemical; conditions: PEG400, ethanol, mannitol
Protocol: 3. The effects of the Polyoxyl 35 Castor Oil ester used by the present invention as surfactant on the solubility and clarity of the compound 1 were further tested. The specific results are as follows.
as §1, with “vial) for appearance observation.” for “vial), and the properties of the prepared solutions were observed.”
In addition, the effect of Tween80 as surfactant of the present invention on the solubility and clarity of compound 1 was tested. Specific results are as follows.
Experimental Method: referring to the process of preparation of solution in Preparation Example 1, the solution was prepared according to the formulation in the Table below for appearance observation.
Similarly, the effect of Solutol HS-15 as surfactant of the present invention on the solubility and clarity of compound 1 was tested. Specific results are as follows.

[4] = test system: cancer cells; conditions: see WO2014113413; cited from earlier work
[5] = Solubility of Compound 1 in different co-solvents (excess compound, HPLC analysis); type: physicochemical; conditions: organic solvent or mixture, thermodynamic from solid, about half an hour
Text: 2. The effects of different co-solvents on the solubility of Compound 1 were observed. The specific results are as follows.
Experimental method: Compound 1 was taken in excess amount, suspended in various solvents, sampled and filtered after about half an hour, and analyzed by HPLC analysis.

## Cc1c(S(C)(=O)=O)c(-c2cc(F)cc(N3CCN(c4ccc(NS(=O)(=O)c5ccc(N[C@H](CCN6CCC(C(=O)OCCCP(=O)(O)O)CC6)CSc6ccccc6)c(S(=O)(=O)C(F)(F)F)c5)cc4)CC3)c2)c(-c2ccc(Cl)cc2)n1C(C)C [Compound 1, (3R)-1-(3-(4-(4-(4-(3-(2-(4-chlorophenyl)-1-isopropyl-4-methylsulfonyl-5-methyl-1H-pyrrol-3-yl)-5-fluorophenyl)piperazin-1-yl)-phenylaminosulfonyl)-2-trifluoromethylsulfonyl-anilino)-4-phenylthio-butyl)-piperidine-4-carboxylic acid 3-phosphonopropyl ester]
[1]; pH 7.888, Table 1 formulation
  solubility of Compound 1: poor
[1]; pH 8.528, Table 1 formulation
  solubility of Compound 1: acceptable
[1]; pH 9.016, Table 1 formulation
  solubility of Compound 1: acceptable
[1]; pH 9.326, Table 1 formulation
  solubility of Compound 1: best solubility
[2]; acidic or near-neutral solutions
  solubility: extremely poorly soluble
[2]; alkaline conditions
  dissolution: greatly improved
  stability: unstable
[3]; Table 3a: compound 1 10 mg/ml, Tween80 50 mg, pH 9.0
  Solution appearance: Transparent solution
[3]; Table 3b: compound 1 10 mg/ml, Solutol HS-15 240 mg, pH 8.7
  Solution appearance: Transparent solution
[4]
  inducing apoptosis of cancer cells: effective
[5]; solvent Ethanol, 25° C.
  solubility: 850 µg/mL (≈ 663 µM)
[5]; solvent Glycerin, 25° C.
  solubility: 450 µg/mL (≈ 351 µM)
[5]; solvent PEG400, 25° C.
  solubility: 16800 µg/mL (≈ 13100 µM)
[5]; solvent Propylene glycol, 25° C.
  solubility: 3100 µg/mL (≈ 2420 µM)
